Where two headings read alike, the source gives them in different places.
Key:
[1] = system: P388D1 (mouse, lymphoma); assay: Cell growth inhibition assay, P388D1; assay type: cell-based; details: five days of incubation, XTT; read-out: IC50 P388D1 (ms)
Protocol: (§1) In this study, compounds 1-8 were screened in vitro against a panel of four mouse lymphoma cell lines and two human lymphoma cell line for cell growth inhibition activity. Following treatment, half maximal inhibitory concentrations (IC50) were determined with the objective of selecting the most efficacious compounds for evaluation of in vitro absorption, distribution, metabolism, and excretion (ADME) screening.
(§2) Similarly, human Burkitt's lymphoma Ramos cells (ATCC CRL-1596) were grown in suspension in Roswell Park Memorial Institute (RPMI) 1640 medium supplemented with 10% fetal bovine serum (FBS), 10 mM HEPES KOH pH 7.4, and 2 mM sodium pyruvate. Mouse P388D1 (ATCC CCL-46) and WR19L (ATCC TIB-52) cells were grown in suspension in Dulbecco's Modified Eagle Medium (DMEM) with 10% fetal bovine serum (FBS), 10 mM HEPES, and 2 mM sodium pyruvate. Mouse WEHI231 (ATCC CRL-1702) and EL4 (ATCC TIB-39) cells were grown in suspension in DMEM with 10% fetal bovine serum (FBS), 10 mM HEPES KOH pH 7.4, 2 mM sodium pyruvate, and 0.05 mM β-mercaptoethanol. All cells were maintained at 37° C. in an atmosphere of 5% CO2 in air. Logarithmically growing cells were routinely sub-cultured twice weekly. Briefly, cells were collected by centrifugation, resuspended in pre-warmed media, and diluted 1:10 into a 75 cm^2 flask.
(§3) Cells were subcultured and 4×10^3 cells (in 50 μL) were transferred to each well in a Falcon 96-well tissue culture plate. Exemplary compounds were dissolved in pure dimethyl sulphoxide (DMSO) at a concentration of 10 mM. From this 10 mM stock solution, 12 successive serial dilutions were made in DMSO (2.5 fold dilutions), ranging from 0.52 μM to 10 mM. Using these stock dilutions, 5 μL of each were added to 500 μL of media, and 50 μL of this was added to the cells. The final concentrations being tested ranged from 0.0026 μM to 50 μM. Each concentration was tested in triplicate, and DMSO and untreated cells were also included as controls. After five days of incubation with the compounds, cell viability was determined using the XTT cell proliferation kit (Roche, Cat. No. 11 465 015 001). Following the XTT protocol, 4.5-24 hours after addition of the reagent, the plates were read in a μQuant 96-well plate spectrophotometer (Biotek Instruments Inc.) and the results analyzed to determine the IC50.

[2] = system: human renal cancer cells ACHN; assay: XTT cell proliferation assay, ACHN; assay type: cell-based; details: 5 days incubation, read-out: Antiproliferative activity, Kidney ACHN
Protocol: (§4) Exemplary compounds 1-8 were tested for anti-cancer activity in vitro using human renal cancer cells (ACHN and CAK-1), human pancreatic cells (BXPC3 and SU-86-86), human prostate cancer cell (DU14), human colon carcinoma cells (HT-29 and KM-12), leukemia cells (HL60), brain cancer/tumour cells (SK-A-AS, U87-MG), and human non-small cell lung cancer cells (H460). Compounds 1-8 are the specific embodiments of Formula (I) and Formula (IV) as described above in this application.
(§5) The cells were maintained as a monolayer in a growth medium; McCoy's 5A modified medium (Sigma, St. Louis, Mo.), supplemented with 2 mM L-glutamine (Gibco, Grand Island, N.Y.), 10% fetal bovine serum (FBS) (Multicell, WISENT Inc. St-Bruno, QC), antibiotic-antimycotic (Multicell), at 37° C. in a 5% CO2-humidified incubator. Cells were transferred onto 150 mm tissue culture plates and grown until sub-confluency (70-80%) prior to their use. The in vitro antiproliferative activity of compounds was evaluated by incubating the cells with varying concentrations of exemplary compounds as shown in Table 1 for 5 days. The efficacy of these compounds in this cell proliferation assay was measured based in the ability of live cells to reduce the tetrazolium salt XTT to orange colored compounds of formazan (XTT cell proliferation kit IT, Roche Applied Science, Montreal, QC).

[3] = system: non-small cell lung cancer cells HOP-92; assay: XTT cell proliferation assay, HOP-92; assay type: cell-based, human; details: 5 days incubation, read-out: Antiproliferative activity, NSCLC HOP-92
Protocol: [The procedure below names another cell line; the source lists this cell line under the same test.] as §4, §5

[4] = system: human colon carcinoma cells HT-29; assay: XTT cell proliferation assay, HT-29; assay type: cell-based; details: 5 days incubation, read-out: Antiproliferative activity, Colon HT-29
Protocol: as §4, §5

[5] = system: leukemia cells HL60; assay: XTT cell proliferation assay, HL60; assay type: cell-based, human; details: 5 days incubation, read-out: Antiproliferative activity, Leuk. HL60
Protocol: as §4, §5

[6] = system: human colon carcinoma cells KM12; assay: XTT cell proliferation assay, KM12; assay type: cell-based; details: 5 days incubation, read-out: Antiproliferative activity, Colon KM12
Protocol: as §4, §5

[7] = system: Human Burkitt's lymphoma Raji cells; assay: Cell growth inhibition assay, Raji; assay type: cell-based; details: five days of incubation, XTT; read-out: IC50 Raji (hs)
Protocol: as §1
Human Burkitt's lymphoma Raji cells (ATCC CCL-86) were grown in suspension in Roswell Park Memorial Institute (RPMI) 1640 medium supplemented with 10% fetal bovine serum (FBS), 10 mM HEPES KOH pH 7.4, and 2 mM sodium pyruvate at 37° C. in an atmosphere of 5% CO2 in air. Logarithmically growing cells were routinely sub-cultured twice weekly. Briefly, cells were collected by centrifugation, resuspended in pre-warmed media, and diluted 1:10 into a 75 cm^2 flask.
as §3

[8] = system: non-small cell lung cancer cells H226; assay: XTT cell proliferation assay, H226; assay type: cell-based, human; details: 5 days incubation, read-out: Antiproliferative activity, NSCLC H226
Protocol: [The procedure below names another cell line; the source lists this cell line under the same test.] as §4, §5

[9] = system: brain cancer/tumour cells U87-MG; assay: XTT cell proliferation assay, U87-MG; assay type: cell-based, human; details: 5 days incubation, read-out: Antiproliferative activity, Brain U87-MG
Protocol: as §4, §5

[10] = system: human pancreatic cells BXPC3; assay: XTT cell proliferation assay, BXPC3; assay type: cell-based; details: 5 days incubation, read-out: Antiproliferative activity, Pancreas BXPC3
Protocol: as §4, §5

[11] = system: human Burkitt's lymphoma Ramos cells; assay: Cell growth inhibition assay, Ramos; assay type: cell-based; details: five days of incubation, XTT; read-out: IC50 Ramos (hs)
Protocol: as §1, §2, §3

[12] = system: WEHI 231 (mouse, B-cell lymphoma); assay: Cell growth inhibition assay, WEHI231; assay type: cell-based; details: five days of incubation, XTT; read-out: IC50 WEHI231 (ms)
Protocol: as §1, §2, §3

[13] = system: EL4 (mouse, lymphoma); assay: Cell growth inhibition assay, EL4; assay type: cell-based; details: five days of incubation, XTT; read-out: IC50 EL4 (ms)
Protocol: as §1, §2, §3

[14] = system: human prostate cancer cell DU14; assay: XTT cell proliferation assay, DU14; assay type: cell-based; details: 5 days incubation, read-out: Antiproliferative activity, Pros. DU14
Protocol: as §4, §5

[15] = system: WR19L (mouse, lymphoma); assay: Cell growth inhibition assay, WR19L; assay type: cell-based; details: five days of incubation, XTT; read-out: IC50 WR19L (ms)
Protocol: as §1, §2, §3

[16] = system: panel of human and mouse lymphoma cell lines; assay: Cell growth inhibition, whole lymphoma panel (mean IC50, mean rank); assay type: cell-based; details: mean over six lymphoma cell lines
Protocol: as §1, §3
In vitro potency was assessed using eight exemplary compounds against a panel of human and mouse lymphoma cell lines (Table 4). […] To compare the efficacy of the compounds in cell growth inhibition across the entire panel of cell lines screened, the eight compounds were ranked according to efficacy against each cell line with a numerical value of one indicating most efficacious (lowest IC50 value) and eight being the least efficacious (highest IC50 value).

[17] = system: human pancreatic cells SU-86-86; assay: XTT cell proliferation assay, SU-86-86; assay type: cell-based; details: 5 days incubation, read-out: Antiproliferative activity, Pancreas SU-86-86
Protocol: as §4, §5

[18] = system: human non-small cell lung cancer cells H460; assay: XTT cell proliferation assay, H460; assay type: cell-based; details: 5 days incubation, read-out: Antiproliferative activity, NSCLC H460
Protocol: as §4, §5

[19] = system: non-small cell lung cancer cells EKVX; assay: XTT cell proliferation assay, EKVX; assay type: cell-based, human; details: 5 days incubation, read-out: Antiproliferative activity, NSCLC EKVX
Protocol: [The procedure below names another cell line; the source lists this cell line under the same test.] as §4, §5

[20] = system: brain cancer/tumour cells SK-N-AS; assay: XTT cell proliferation assay, SK-N-AS; assay type: cell-based, human; details: 5 days incubation, read-out: Antiproliferative activity, Brain SK-N-AS
Protocol: as §4, §5

[21] = system: non-small cell lung cancer cells HOP-62; assay: XTT cell proliferation assay, HOP-62; assay type: cell-based, human; details: 5 days incubation, read-out: Antiproliferative activity, NSCLC HOP-62
Protocol: [The procedure below names another cell line; the source lists this cell line under the same test.] as §4, §5

[22] = system: human renal cancer cells CAKI-1; assay: XTT cell proliferation assay, CAKI-1; assay type: cell-based; details: 5 days incubation, read-out: Antiproliferative activity, Kidney CAKI-1
Protocol: as §4, §5

[23] = NCI screen; cited from earlier work

Row | Structure (SMILES) | IC50 [1] [nM] | IC50 [2] [nM] | IC50 [3] [nM] | IC50 [4] [nM] | IC50 [5] [nM] | IC50 [6] [nM] | IC50 [7] [nM] | IC50 [8] [nM] | IC50 [9] [nM] | IC50 [10] [nM] | IC50 [11] [nM] | IC50 [12] [nM] | IC50 [13] [nM] | IC50 [14] [nM] | IC50 [15] [nM] | IC50 [16] [nM] | IC50 [17] [nM] | IC50 [18] [nM] | IC50 [20] [nM] | IC50 [21] [nM] | other results
1 | FC1(F)Oc2ccc(-c3nc4c5cccnc5c5ncccc5c4[nH]3)cc2O1 [Compound 2] | 400 | 170 | 170 | 300 | 380 | 220 | 166 | 430 | 180 | 180 | 150 | 5.1 | 384 | 220 | 31 | 189 |  |  |  |  | 
2 | FC1(F)Oc2ccc(-c3nc4c5cccnc5c5ncccc5c4[nH]3)cc2O1 [Compound 3] | 377 | 170 | 170 | 220 | 150 | 230 | 197 | 390 | 154 | 180 | 139 | 4.2 | 451 | 170 | 59 | 205 |  |  |  |  | 
3 | FC1(F)Oc2ccc(-c3nc4c5cccnc5c5ncccc5c4[nH]3)cc2O1 [Compound 4] | 243 | 127 | 170 | 300 | 170 | 180 | 54 | 390 | 180 | 170 | 58 | 6.4 | 486 | 150 | 5.8 | 142 | 26 | 160 | 190 | 170 | IC50 ([19]; Homo sapiens, EKVX, 120 h): 160 nM; IC50 [22]: 170 nM
4 | FC1(F)Oc2ccc(-c3nc4c5cccnc5c5ncccc5c4[nH]3)cc2O1 [Compound 5] | 414 | 130 | 170 | 170 | 110 | 280 | 109 | 190 | 180 | 200 | 75 | 12.6 | 518 | 180 | 9.3 | 190 | 28 | 140 | 90 | 210 | IC50 [19]: 150 nM
5 | FC1(F)Oc2ccc(-c3nc4c5cccnc5c5ncccc5c4[nH]3)cc2O1 [Compound 6] | 52 | 38 | 30 | 170 | 50 | 180 | 32 | 210 | 180 | 200 | 18 | 4.2 | 57 | 130 | < 2.6 | 28 | 26 | 160 | 36 | 30 | IC50 [19]: 170 nM; IC50 [22]: 30 nM
6 | FC1(F)Oc2ccc(-c3nc4c5cccnc5c5ncccc5c4[nH]3)cc2O1 [Compound 7] | 209 | 23 | 170 | 390 | 30 | 400 | 112 | 200 | 40 | 40 | 83 | 7.6 | 470 | 30 | 12 | 149 | 110 | 320 | 190 | 150 | IC50 [19]: 220 nM; IC50 [22]: 160 nM
7 | FC1(F)Oc2ccc(-c3nc4c5cccnc5c5ncccc5c4[nH]3)cc2O1 [Compound 8] | 146 | 203 | 160 | 285 | 110 | 583 | 25 | 710 | 190 | 210 | 34 | 3 | 199 | 150 | 5.1 | 69 |  |  |  |  | 
8 | c1ccc2c(-c3nc4ccccc4[nH]3)cccc2c1 [NCI #144033] |  |  |  |  |  |  |  |  |  |  |  |  |  |  |  |  |  |  |  |  | activity in the In Vivo Anticancer Drug Screen [23]: None of these three compounds showed any activity
9 | CN(C)c1ccc(-c2nc3c4ccccc4c4ccccc4c3[nH]2)cc1 [NCI #322334] |  |  |  |  |  |  |  |  |  |  |  |  |  |  |  |  |  |  |  |  | activity in the In Vivo Anticancer Drug Screen [23]: None of these three compounds showed any activity
